The values that follow come from patent publication US20060205733A1, “Endothelin a receptor antagonists in combination with phosphodiesterase 5 inhibitors and uses thereof” (Encysive Pharmaceuticals, priority 2004, published 2006).

For one data set, the target named is T1, ETB (Homo sapiens, UniProt P24530).
T1 sequence (P24530 27-442): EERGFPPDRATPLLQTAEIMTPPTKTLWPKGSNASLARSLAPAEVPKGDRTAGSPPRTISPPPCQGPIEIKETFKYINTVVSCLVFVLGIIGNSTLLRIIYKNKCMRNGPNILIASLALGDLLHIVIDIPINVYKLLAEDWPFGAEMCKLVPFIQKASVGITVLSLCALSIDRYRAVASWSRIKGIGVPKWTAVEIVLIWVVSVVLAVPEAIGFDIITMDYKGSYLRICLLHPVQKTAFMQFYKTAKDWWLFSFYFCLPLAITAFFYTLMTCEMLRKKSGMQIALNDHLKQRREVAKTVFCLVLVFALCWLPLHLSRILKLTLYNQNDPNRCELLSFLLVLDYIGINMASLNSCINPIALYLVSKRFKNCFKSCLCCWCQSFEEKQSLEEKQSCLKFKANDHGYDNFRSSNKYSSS
To be noted: read-out: Binding K1 (nM) to ETB; cited from earlier work.

The conditions of data set [1]: in vivo; cited from earlier work.
For the next data set, the target named is bile salt export pump (Homo sapiens, UniProt O95342). To be noted: cited from earlier work.
Data set [2] is described as follows: Pharmacokinetic drug interaction study, sitaxsentan and sildenafil. Format: in vivo, human. To be noted: single 100 mg sildenafil on day 7 of 100 mg sitaxsentan daily. As to the method: A pharmacokinetic drug interaction study was performed using 24 individuals. In the study, a group of 24 normal, healthy volunteers participated in two treatment periods. […] During the other treatment period, the subjects received placebo for seven days and 100 mg of VIAGRA on the seventh day. Twelve subjects were randomly assigned to each treatment period. When the subjects finished one treatment period, they were switched to the other treatment period.
Samples were drawn (in duplicate) once on days 1, 3, 5 and 6; 15 times on day 7 and once again on day 8 for each treatment period. The samples were stored at a nominal temperature of −20° C. for a duration not exceeding 38 days. All samples were analyzed with a set of calibration standards and low, medium and high concentration Quality Control samples.

For data set [3] the following is noted: in vivo; cited from earlier work. This is another data set of the same source.
Data set [4] has as its target T2, ETA (Homo sapiens, UniProt P25101).
T2 sequence (P25101 21-427): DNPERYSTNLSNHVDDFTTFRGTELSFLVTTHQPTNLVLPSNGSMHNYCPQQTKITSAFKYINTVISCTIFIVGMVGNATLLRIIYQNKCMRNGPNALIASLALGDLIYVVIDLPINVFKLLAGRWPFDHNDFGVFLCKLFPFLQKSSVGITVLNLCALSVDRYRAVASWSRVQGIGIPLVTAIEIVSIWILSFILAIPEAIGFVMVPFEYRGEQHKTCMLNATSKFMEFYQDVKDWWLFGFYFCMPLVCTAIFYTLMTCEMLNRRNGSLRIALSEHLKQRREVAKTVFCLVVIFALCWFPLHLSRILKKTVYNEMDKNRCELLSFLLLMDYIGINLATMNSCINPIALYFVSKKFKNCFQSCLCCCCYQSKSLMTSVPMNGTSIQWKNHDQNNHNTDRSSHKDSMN
To be noted: cited from earlier work.

The next data set deals with cytochrome P450 enzymes. To be noted: in vivo; cited from earlier work.
The target in data set [5] is T2, ETA. To be noted: ETA versus ETB, Table 2; cited from earlier work.
For data set [6] the following is noted: in vivo; cited from earlier work. This is another data set of the same source.
The target of the next data set is T3, cytochrome P450 3A4 (Homo sapiens, UniProt P08684).
T3 construct: endogenous in cells; host or cells: cultured hepatocytes
Description: Cytochrome P450 3A4 inhibition in cultured hepatocytes. Format: in vitro ADME.

bile salt export pump, sequence (O95342 whole entry): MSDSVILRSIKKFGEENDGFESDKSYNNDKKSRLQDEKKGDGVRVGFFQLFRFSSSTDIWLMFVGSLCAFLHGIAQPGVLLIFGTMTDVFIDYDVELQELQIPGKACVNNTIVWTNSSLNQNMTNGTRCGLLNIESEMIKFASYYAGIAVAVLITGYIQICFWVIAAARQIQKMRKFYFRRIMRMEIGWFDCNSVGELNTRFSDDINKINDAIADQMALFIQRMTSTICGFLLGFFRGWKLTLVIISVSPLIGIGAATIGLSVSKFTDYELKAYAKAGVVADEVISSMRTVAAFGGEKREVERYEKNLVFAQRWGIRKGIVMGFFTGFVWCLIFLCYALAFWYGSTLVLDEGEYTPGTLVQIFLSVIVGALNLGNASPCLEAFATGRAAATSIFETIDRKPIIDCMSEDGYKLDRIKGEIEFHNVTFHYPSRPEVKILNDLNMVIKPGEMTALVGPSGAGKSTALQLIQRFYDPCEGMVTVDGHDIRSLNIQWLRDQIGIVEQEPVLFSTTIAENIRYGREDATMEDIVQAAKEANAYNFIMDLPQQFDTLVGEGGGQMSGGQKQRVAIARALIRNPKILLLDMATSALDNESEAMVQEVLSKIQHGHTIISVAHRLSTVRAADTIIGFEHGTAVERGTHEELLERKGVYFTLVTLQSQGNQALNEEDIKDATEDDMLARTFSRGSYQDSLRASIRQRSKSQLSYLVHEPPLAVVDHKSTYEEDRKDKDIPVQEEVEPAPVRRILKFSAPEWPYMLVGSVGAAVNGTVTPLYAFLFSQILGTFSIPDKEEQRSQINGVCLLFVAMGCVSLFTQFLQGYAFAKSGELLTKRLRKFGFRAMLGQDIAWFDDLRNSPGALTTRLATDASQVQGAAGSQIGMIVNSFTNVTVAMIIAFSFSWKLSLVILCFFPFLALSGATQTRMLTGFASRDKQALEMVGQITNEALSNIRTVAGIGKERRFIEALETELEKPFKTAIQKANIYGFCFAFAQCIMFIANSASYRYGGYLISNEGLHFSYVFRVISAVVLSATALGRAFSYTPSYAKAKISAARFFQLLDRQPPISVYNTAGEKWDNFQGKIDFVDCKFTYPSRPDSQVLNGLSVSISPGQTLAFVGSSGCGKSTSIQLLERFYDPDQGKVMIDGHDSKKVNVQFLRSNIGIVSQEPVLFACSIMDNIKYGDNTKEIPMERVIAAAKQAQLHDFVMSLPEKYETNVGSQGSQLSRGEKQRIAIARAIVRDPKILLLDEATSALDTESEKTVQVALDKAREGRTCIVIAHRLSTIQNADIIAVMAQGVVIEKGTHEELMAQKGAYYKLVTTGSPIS
T3 sequence (P08684 whole entry): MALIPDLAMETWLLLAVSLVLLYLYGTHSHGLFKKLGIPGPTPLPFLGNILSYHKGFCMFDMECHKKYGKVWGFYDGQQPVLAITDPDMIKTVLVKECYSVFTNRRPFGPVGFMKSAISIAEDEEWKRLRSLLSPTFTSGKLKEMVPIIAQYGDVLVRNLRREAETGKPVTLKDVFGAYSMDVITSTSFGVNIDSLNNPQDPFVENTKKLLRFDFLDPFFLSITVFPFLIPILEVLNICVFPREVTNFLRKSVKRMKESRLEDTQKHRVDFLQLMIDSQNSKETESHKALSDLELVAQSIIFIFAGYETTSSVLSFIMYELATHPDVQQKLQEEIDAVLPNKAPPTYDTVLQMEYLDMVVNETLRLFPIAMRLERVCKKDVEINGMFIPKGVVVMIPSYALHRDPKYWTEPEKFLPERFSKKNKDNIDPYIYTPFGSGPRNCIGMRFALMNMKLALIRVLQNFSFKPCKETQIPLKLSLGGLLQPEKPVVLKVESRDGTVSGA

Consider `Cc1cc2c(cc1CC(=O)c1sccc1S(=O)(=O)Nc1onc(C)c1Cl)OCO2` [Sitaxsentan], for which the Ki on ETB is > 4300 nM; at ETA [4] (read-out: Intrinsic potency to ETA (Ki)) it was 0.45 nM. The Metabolism result in [1] is “Through 3A4 and 2C9”. Moreover, the t1/2 in data set [1] was 10 h. In addition, the “Effect on bile salt” value on bile salt export pump was “Does not accumulate”. In addition, the “Effect of sildenafil administration on sitaxsentan levels / pharmacokinetics” value in [2] (listed as sitaxsentan) is recorded as “did not alter sitaxsentan levels”. Also, in data set [3], the Effect on bilirubin entry was “No effect”. Moreover, the “Selectivity for ETA:ETB” value at ETA [4] (Table 4) was 6500. Besides, the “ETA:ETB selectivity ratio” value at ETA [4] (based upon in vitro receptor affinity ratios) was 6500. Further, the “Induction of cytochrome P450 enzymes” value with cytochrome P450 enzymes was “No induction”. In addition, the Selectivity on ETA [5] is on record as 10,000.

In the case of `Cc1cc2c(cc1CC(=O)c1sccc1S(=O)(=O)Nc1onc(C)c1Cl)OCO2` [THELIN], the Side effects entry in data set [6] is “liver dysfunction (increased ALT and AST), headache, edema, constipation, nasal congestion and flushing”. Moreover, the “Effect of sildenafil administration on sitaxsentan levels / pharmacokinetics” value in data set [2] is “does not appear to impact”. The “Selectivity as an antagonist for ETA compared to ETB” value at ETA [4] was “approximately 6,500 fold”. Also, the “Cytochrome P450 3A4 inhibition” value on cytochrome P450 3A4 is “weak”.
